Data on three molecules can be found in ChEMBL document CHEMBL5543071, “Benzopyran hydrazones with dual PPARα/γ or PPARα/δ agonism and an anti-inflammatory effect on human THP-1 macrophages” (Eur J Med Chem, 2024).

Data set [1] concerns THP-1. The experiment in a line: Cytotoxicity against human THP-1 cells assessed as reduction in cell viability at 10 to 30 uM incubated for 72 hrs. As to conditions: thp-1, 72 h, dose 10-30 µM. It counts as toxicity, cell-based.
The target of data set [2] is T1, Peroxisome proliferator-activated receptor gamma (Homo sapiens, UniProt P37231).
T1 sequence (P37231 whole entry): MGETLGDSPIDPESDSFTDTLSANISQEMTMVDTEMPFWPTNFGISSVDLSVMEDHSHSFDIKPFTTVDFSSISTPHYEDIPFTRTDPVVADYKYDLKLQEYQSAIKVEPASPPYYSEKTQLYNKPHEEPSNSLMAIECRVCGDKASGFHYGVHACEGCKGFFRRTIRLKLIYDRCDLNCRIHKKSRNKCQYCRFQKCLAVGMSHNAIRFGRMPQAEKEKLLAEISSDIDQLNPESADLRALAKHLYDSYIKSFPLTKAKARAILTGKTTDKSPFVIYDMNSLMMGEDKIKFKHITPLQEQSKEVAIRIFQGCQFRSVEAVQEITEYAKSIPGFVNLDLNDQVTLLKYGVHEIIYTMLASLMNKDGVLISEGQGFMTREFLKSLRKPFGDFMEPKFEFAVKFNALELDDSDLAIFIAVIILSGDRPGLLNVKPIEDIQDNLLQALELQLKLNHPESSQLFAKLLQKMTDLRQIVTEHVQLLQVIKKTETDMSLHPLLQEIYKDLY
It counts as cell-based, COS7.
Description: Agonist activity at human PPARgamma transfected in african green monkey COS7 cells assessed transcriptional activation incubated for 24 hrs by luciferase assay

The subject of data set [3] is THP-1. The experiment in a line: Cytotoxicity against human THP-1 cells assessed as reduction in cell viability at 100 uM incubated for 72 hrs. In kind it is toxicity, cell-based. As to conditions: thp-1, 72 h.

Turning to `C/C(=C\CCC1(C)CCc2cc(OCc3ccc(F)cc3)ccc2O1)CC/C=N/Nc1ncc(Cl)cc1C(F)(F)F` (stereo not given), the Activity entry in data set [1] is on record as “Non-Toxic”.

Consider `CC1(CC/C=N/Nc2nc3ccccc3s2)CCc2cc(OCc3ccc(F)cc3)ccc2O1` (stereo not given), for which the Activity result in data set [1] is “Non-Toxic”.

For `CC1(CC/C=N/Nc2ncc(Cl)cc2C(F)(F)F)CCc2cc(OCc3ccc(F)cc3)ccc2O1` (stereo not given), in data set [2], it took 5.54 µM to reach a half-maximal effect (EC50). The Activity entry in data set [3] is on record as “Toxic”; in data set [1], “Non-Toxic”.
